# Assays:
# Assay in all cases: relative viability (nuclei count vs DMSO), 5 days (fraction); higher = more cells survive
# UMC-11 = tested on: UMC-11
# Method in brief: (§1)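 Five library-drug doses in √10 steps were combined with a fixed anchor-drug dose, or a single drug was given alone, by pin tool to lung cancer cell lines in 1536-well plates the day after seeding. Nuclei were stained and counted after 5 days. Relative viability is the nuclei count in treated wells over that in vehicle wells, taken as the median of duplicate plates.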
# NCI-H2009 = tested on: NCI-H2009
# Method in brief: as §1
# NCI-H1650 = tested on: NCI-H1650
# Method in brief: as §1
# A-427 = tested on: A-427
# Method in brief: as §1
# NCI-H1734 = tested on: NCI-H1734
# Method in brief: as §1
# LK-2 = tested on: LK-2
# Method in brief: as §1
# CAL-12T = tested on: CAL-12T
# Method in brief: as §1
# NCI-H1648 = tested on: NCI-H1648
# Method in brief: as §1
smiles,measurement,setting,value
COc1cc2nccc(Oc3ccc(NC(=O)Nc4cc(C)on4)c(Cl)c3)c2cc1OC [Tivozanib] + CC(=O)c1c(C)c2cnc(Nc3ccc(N4CCNCC4)cn3)nc2n(C2CCCC2)c1=O [Palbociclib] (partner 0.5 µM),relative viability,UMC-11; first compound 0.005 µM,0.288
same,relative viability,UMC-11; first compound 0.01581 µM,0.327
same,relative viability,UMC-11; first compound 0.05 µM,0.32
same,relative viability,UMC-11; first compound 0.1581 µM,0.304
same,relative viability,UMC-11; first compound 0.5 µM,0.307
same,relative viability,NCI-H2009; first compound 0.005 µM,0.212
same,relative viability,NCI-H2009; first compound 0.01581 µM,0.209
same,relative viability,NCI-H2009; first compound 0.05 µM,0.23
same,relative viability,NCI-H2009; first compound 0.1581 µM,0.109
same,relative viability,NCI-H2009; first compound 0.5 µM,0.119
same,relative viability,NCI-H1650; first compound 0.005 µM,0.328
same,relative viability,NCI-H1650; first compound 0.01581 µM,0.304
same,relative viability,NCI-H1650; first compound 0.05 µM,0.336
same,relative viability,NCI-H1650; first compound 0.1581 µM,0.389
same,relative viability,NCI-H1650; first compound 0.5 µM,0.319
same,relative viability,A-427; first compound 0.005 µM,0.51
same,relative viability,A-427; first compound 0.01581 µM,0.55
same,relative viability,A-427; first compound 0.05 µM,0.511
same,relative viability,A-427; first compound 0.1581 µM,0.531
same,relative viability,A-427; first compound 0.5 µM,0.476
same,relative viability,NCI-H1734; first compound 0.005 µM,0.313
same,relative viability,NCI-H1734; first compound 0.01581 µM,0.34
same,relative viability,NCI-H1734; first compound 0.05 µM,0.335
same,relative viability,NCI-H1734; first compound 0.1581 µM,0.336
same,relative viability,NCI-H1734; first compound 0.5 µM,0.345
same,relative viability,LK-2; first compound 0.005 µM,0.664
same,relative viability,LK-2; first compound 0.01581 µM,0.674
same,relative viability,LK-2; first compound 0.05 µM,0.503
same,relative viability,LK-2; first compound 0.1581 µM,0.875
same,relative viability,LK-2; first compound 0.5 µM,0.742
same,relative viability,CAL-12T; first compound 0.005 µM,0.407
same,relative viability,CAL-12T; first compound 0.01581 µM,0.433
same,relative viability,CAL-12T; first compound 0.05 µM,0.465
same,relative viability,CAL-12T; first compound 0.1581 µM,0.224
same,relative viability,CAL-12T; first compound 0.5 µM,0.402
same,relative viability,NCI-H1648; first compound 0.005 µM,0.31
same,relative viability,NCI-H1648; first compound 0.01581 µM,0.272
same,relative viability,NCI-H1648; first compound 0.05 µM,0.269
same,relative viability,NCI-H1648; first compound 0.1581 µM,0.244
same,relative viability,NCI-H1648; first compound 0.5 µM,0.231
Cc1sc2c(c1C)C(c1ccc(Cl)cc1)=N[C@@H](CC(=O)OC(C)(C)C)c1nnc(C)n1-2 [JQ1] + CC(=O)Nc1cccc(-n2c(=O)n(C3CC3)c(=O)c3c(Nc4ccc(I)cc4F)n(C)c(=O)c(C)c32)c1 [Trametinib] (partner 0.02 µM),relative viability,UMC-11; first compound 0.04 µM,0.588
same,relative viability,UMC-11; first compound 0.1265 µM,0.543
same,relative viability,UMC-11; first compound 0.4 µM,0.377
same,relative viability,UMC-11; first compound 1.265 µM,0.204
same,relative viability,UMC-11; first compound 4 µM,0.194
same,relative viability,NCI-H2009; first compound 0.04 µM,0.234
same,relative viability,NCI-H2009; first compound 0.1265 µM,0.197
same,relative viability,NCI-H2009; first compound 0.4 µM,0.173
same,relative viability,NCI-H2009; first compound 1.265 µM,0.15
same,relative viability,NCI-H2009; first compound 4 µM,0.135
same,relative viability,NCI-H1650; first compound 0.04 µM,0.477
same,relative viability,NCI-H1650; first compound 0.1265 µM,0.425
same,relative viability,NCI-H1650; first compound 0.4 µM,0.43
same,relative viability,NCI-H1650; first compound 1.265 µM,0.18
same,relative viability,NCI-H1650; first compound 4 µM,0.145
same,relative viability,A-427; first compound 0.04 µM,0.759
same,relative viability,A-427; first compound 0.1265 µM,0.843
same,relative viability,A-427; first compound 0.4 µM,0.674
same,relative viability,A-427; first compound 1.265 µM,0.466
same,relative viability,A-427; first compound 4 µM,0.52
same,relative viability,NCI-H1734; first compound 0.04 µM,0.685
same,relative viability,NCI-H1734; first compound 0.1265 µM,0.688
same,relative viability,NCI-H1734; first compound 0.4 µM,0.644
same,relative viability,NCI-H1734; first compound 1.265 µM,0.462
same,relative viability,NCI-H1734; first compound 4 µM,0.491
same,relative viability,LK-2; first compound 0.04 µM,0.71
same,relative viability,LK-2; first compound 0.1265 µM,0.579
same,relative viability,LK-2; first compound 0.4 µM,0.217
same,relative viability,LK-2; first compound 1.265 µM,0.163
same,relative viability,LK-2; first compound 4 µM,0.218
same,relative viability,CAL-12T; first compound 0.04 µM,0.354
same,relative viability,CAL-12T; first compound 0.1265 µM,0.29
same,relative viability,CAL-12T; first compound 0.4 µM,0.207
same,relative viability,CAL-12T; first compound 1.265 µM,0.193
same,relative viability,CAL-12T; first compound 4 µM,0.208
same,relative viability,NCI-H1648; first compound 0.04 µM,0.432
same,relative viability,NCI-H1648; first compound 0.1265 µM,0.473
same,relative viability,NCI-H1648; first compound 0.4 µM,0.337
same,relative viability,NCI-H1648; first compound 1.265 µM,0.303
same,relative viability,NCI-H1648; first compound 4 µM,0.245
Nc1ccn([C@@H]2O[C@H](CO)[C@@H](O)[C@@H]2O)c(=O)n1 [Cytarabine] + Nc1nc2[nH]cc(CCc3ccc(C(=O)N[C@@H](CCC(=O)O)C(=O)O)cc3)c2c(=O)[nH]1 [Pemetrexed] (partner 0.2 µM),relative viability,UMC-11; first compound 0.005 µM,0.551
same,relative viability,UMC-11; first compound 0.01581 µM,0.491
same,relative viability,UMC-11; first compound 0.05 µM,0.428
same,relative viability,UMC-11; first compound 0.1581 µM,0.226
same,relative viability,UMC-11; first compound 0.5 µM,0.195
same,relative viability,NCI-H2009; first compound 0.005 µM,0.971
same,relative viability,NCI-H2009; first compound 0.01581 µM,0.99
same,relative viability,NCI-H2009; first compound 0.05 µM,0.996
same,relative viability,NCI-H2009; first compound 0.1581 µM,0.827
same,relative viability,NCI-H2009; first compound 0.5 µM,0.258
same,relative viability,NCI-H1650; first compound 0.005 µM,0.367
same,relative viability,NCI-H1650; first compound 0.01581 µM,0.353
same,relative viability,NCI-H1650; first compound 0.05 µM,0.262
same,relative viability,NCI-H1650; first compound 0.1581 µM,0.199
same,relative viability,NCI-H1650; first compound 0.5 µM,0.158
same,relative viability,A-427; first compound 0.005 µM,0.745
same,relative viability,A-427; first compound 0.01581 µM,0.509
same,relative viability,A-427; first compound 0.05 µM,0.332
same,relative viability,A-427; first compound 0.1581 µM,0.27
same,relative viability,A-427; first compound 0.5 µM,0.253
same,relative viability,NCI-H1734; first compound 0.005 µM,0.501
same,relative viability,NCI-H1734; first compound 0.01581 µM,0.236
same,relative viability,NCI-H1734; first compound 0.05 µM,0.193
same,relative viability,NCI-H1734; first compound 0.1581 µM,0.117
same,relative viability,NCI-H1734; first compound 0.5 µM,0.103
same,relative viability,LK-2; first compound 0.005 µM,0.34
same,relative viability,LK-2; first compound 0.01581 µM,0.233
same,relative viability,LK-2; first compound 0.05 µM,0.11
same,relative viability,LK-2; first compound 0.1581 µM,0.091
same,relative viability,LK-2; first compound 0.5 µM,0.0936
same,relative viability,CAL-12T; first compound 0.005 µM,0.928
same,relative viability,CAL-12T; first compound 0.01581 µM,1.11
same,relative viability,CAL-12T; first compound 0.05 µM,0.984
same,relative viability,CAL-12T; first compound 0.1581 µM,0.543
same,relative viability,CAL-12T; first compound 0.5 µM,0.249
same,relative viability,NCI-H1648; first compound 0.005 µM,0.563
same,relative viability,NCI-H1648; first compound 0.01581 µM,0.733
same,relative viability,NCI-H1648; first compound 0.05 µM,0.838
same,relative viability,NCI-H1648; first compound 0.1581 µM,0.653
same,relative viability,NCI-H1648; first compound 0.5 µM,0.515
